Data set [1] can be described thus: Metabolic stability in rat liver microsomes. It counts as in vitro ADME. As to the method:
page 15: SUPPORTING INFORMATION 3. Molecular Modeling A structure of PHD2 in complex with Fe and a 2OG competing inhibitor (PDB ID: 4KBZ) was obtained from PDB website. The structure files of protein and compounds for docking were prepared using the Discovery Studio (DS) 2020 software. A water molecule HOH624, conserved in the active binding site of PHD2, was retained during the docking. Residues of PHD2 around the native ligand […] Subsequently, the ligand was removed; the Fe (II) was retained during the docking. Compounds were docked into the binding sites using GOLD 5.1. Docking procedures were performed using the default setting with 100 genetic algorithm (GA) runs of ligands. […] The samples were centrifuged at 5000 rpm f or 10 min; the supernatants were then analyzed by HPLC. […] Subsequently, these samples were analyzed for reticulocytes in the center for new drug safety evaluation and research of China Pharmaceutical University (ADVIA 2120 hematology system). 5.2 In vivo EPO increased assay Plasma EPO was evaluated using the erythropoietin quantikine ELISA kit for mice (MEP00B). […] Plasma was collected by centrifugation at 3000 rpm, these plasmas were detected by E PO ELISA. […] The hemoglobin of samples was analyzed in the center for new drug safety evaluation and research at China Pharmaceutical University (ADVIA 2120 hematology system). […]

A short description of data set [2]: Metabolic stability in mouse liver microsomes. It counts as in vitro ADME. (In general: Liver microsomes are vesicles of endoplasmic reticulum, rich in cytochrome P450 enzymes.)
Data set [3] concerns reticulocytes in C57BL/6J mice. Nature of the data set: In vivo reticulocytes increased assay. Further details: species or system mouse. As to the method:
A structure of PHD2 in complex with Fe and a 2OG competing inhibitor (PDB ID: 4KBZ) was obtained from PDB website. The structure files of protein and compounds for docking were prepared using the Discovery Studio (DS) 2020 software. A water molecule HOH624, conserved in the active binding site of PHD2, was retained during the docking. Residues of PHD2 around the native ligand (radius = 10 Å) were defined as the binding sites for docking. Subsequently, the ligand was removed; the Fe (II) was retained during the docking. Compounds were docked into the binding sites using GOLD 5.1. Docking procedures were performed using the default setting with 100 genetic algorithm (GA) runs of ligands. […]
17 was preincubated with microsomes from different species (0.5 mg/mL) at 1 μM for 5 min at 37 °C in 100 mM PBS buffer (pH 7.4). […] The samples were centrifuged at 5000 rpm f or 10 min; the supernatants were then analyzed by HPLC. […]
Representative compounds and Roxadustat were formulated in normal saline solution. […] Subsequently, these samples were analyzed for reticulocytes in the center for new drug safety evaluation and research of China Pharmaceutical University (ADVIA 2120 hematology system). […]
Plasma EPO was evaluated using the erythropoietin quantikine ELISA kit for mice (MEP00B). […]
in normal saline solution. […] Plasma was collected by centrifugation at 3000 rpm, these plasmas were detected by E PO […]

Data set [4] is described as follows: Acute oral toxicity assay. In kind it is in vivo. As to conditions: both sexes, mouse, in vivo, 400 mg·kg-1; ICR mice, single oral administration.
Data set [5] relates to ICR mice. Put plainly: Acute oral toxicity assay. In kind it is in vivo. Conditions: 400 mg kg−1 oral, once.
[6] abbreviates: pH 7.4, read-out: t1/2 in liver microsomes.

Molecules are shown by their SMILES.

The term LD50 denotes the dose at which mortality reaches 50%. As for `O=C(N/N=C/c1cccc(O)c1Cl)c1cnc(-c2cccnn2)[nH]c1=O` [compound 17], the “compound present (remaining) in liver microsomes” value is reported as more than 80% in data set [1] (after 50 min, 1 μM, 0.5 mg/mL) and more than 80% in data set [2] (after 50 min, 1 μM, 0.5 mg/mL). The half-life at 1 μM in data set [1] (setting [6]) and in data set [2] (setting [6]) was more than 1.67 h each time. Also, the reticulocyte induction result in data set [3] (C57BL/6J male mice, 20 mg kg−1 po, three administrations, 72 h) is “superior with respect to inducing reticulocytes compared to the other tested ISISS compounds”. Moreover, the “changes in reticulocytes, multiple doses” value in data set [3] (C57BL/6J mice, 5, 10 and 20 mg kg−1 po) was “dose‐dependent increase in reticulocytes”. The same molecule returned an LD50 in data set [4] of more than 400 mg/kg. Further, the “acute oral toxicity findings (body weight, organ/body weight ratio, ALT, AST, BUN, CRE)” value in data set [5] is given as “no obvious abnormality”.

These data come from article PMC9827864, “In Situ Inhibitor Synthesis and Screening by Fluorescence Polarization: An Efficient Approach for Accelerating Drug Discovery” (Angewandte Chemie (International Ed. in English), 2022).
